Experimental data: PubChem BioAssay (NCI)
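In this assay, cells in 96-well plates receive the compound at five concentrations for 48 hours. Endpoints are linearly interpolated between the surrounding concentrations. TGI is the concentration that stops growth completely.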

Key:
Assay in all cases: growth of human tumour cells (NCI), 48 h
[1] = test system: HOP-62 NSCLC
[2] = test system: SW-620 colon
[3] = test system: SNB-19 CNS
[4] = test system: HOP-92 NSCLC
[5] = test system: OVCAR-3 ovarian
[6] = test system: U251 CNS
[7] = test system: SNB-75 CNS
[8] = test system: HL-60(TB) leukemia
[9] = test system: NCI-H23 lung
[10] = test system: DU-145 prostate
[11] = test system: LOX IMVI melanoma
[12] = test system: SF-539 CNS
[13] = test system: HCT-116 colon
[14] = test system: UACC-62 melanoma
[15] = test system: SN12C renal
[16] = test system: MALME-3M melanoma
[17] = test system: 786-0 renal
[18] = test system: RXF 393 renal
[19] = test system: OVCAR-5 ovarian
[20] = test system: UO-31 renal
[21] = test system: HCT-15 colon
[22] = test system: SK-MEL-2 melanoma
[23] = test system: NCI-H460 lung
[24] = test system: SF-268 CNS
[25] = test system: SK-OV-3 ovarian
[26] = test system: CAKI-1 renal
[27] = test system: MOLT-4 leukemia
[28] = test system: COLO 205 colon
[29] = test system: SF-295 CNS
[30] = test system: A549 NSCLC
[31] = test system: OVCAR-4 ovarian
[32] = test system: HCC-2998 colon
[33] = test system: KM12 colon
[34] = test system: HT29 colon
[35] = test system: UACC-257 melanoma
[36] = test system: SR leukemia
[37] = test system: HS 578T breast
[38] = test system: SK-MEL-28 melanoma
[39] = test system: MDA-MB-231 breast
[40] = test system: OVCAR-8 ovarian
[41] = test system: NCI/ADR-RES ovarian
[42] = test system: MDA-N
[43] = test system: TK-10 renal
[44] = test system: MCF7 breast
[45] = test system: CCRF-CEM leukemia
[46] = test system: K-562 leukemia
[47] = test system: IGROV1 ovarian
[48] = test system: ACHN renal
[49] = test system: PC-3 prostate
[50] = test system: NCI-H226 lung
[51] = test system: A498 renal
[52] = test system: T-47D breast
[53] = test system: M14 melanoma
[54] = test system: SK-MEL-5 melanoma
[55] = test system: NCI-H522 lung
[56] = test system: EKVX NSCLC
[57] = test system: RPMI-8226 leukemia
[58] = test system: MDA-MB-435
[59] = test system: BT-549 breast

Measured: TGI

C/C(O)=C(/C=N/C(=S)Nc1ccccc1)C(=O)Nc1ccccc1C
> 100 µM: [1] | [2] | [3] | [4] | [5] | [6] | [7] | [8] | [9] | [10] | [11] | [12] | [13] | [14] | [15] | [16] | [17] | [18] | [19] | [20] | [21] | [22] | [23] | [24] | [25] | [26] | [27] | [28] | [29] | [30] | [31] | [32] | [33] | [34] | [35] | [36] | [37] | [38] | [39] | [40] | [41] | [42] | [43] | [44] | [45] | [46] | [47] | [48] | [49] | [50] | [51] | [52] | [53] | [54] | [55] | [56] | [57] | [58]

CC1(C)/C(=N\O)C2(OS(=O)(=O)C(F)(F)F)CCC1C2 (stereo unspecified)
> 100 µM: [3] | [4] | [6] | [7] | [8] | [9] | [14] | [15] | [20] | [21] | [23] | [24] | [26] | [59] | [27] | [31] | [32] | [33] | [35] | [36] | [38] | [39] | [40] | [41] | [42] | [43] | [45] | [48] | [50] | [51] | [56] | [57] | [58]
